In patent US9376376B2, “Substitute diphenylamine compounds use thereof as antitumor agents” (SINOCHEM CORPORATION, priority 2012, dated 2016):

Experiments:
leukemia HL-60 cells = assay: In vitro cell inhibition assay, CCK-8 method, HL-60; assay type: cell-based, human; settings: HL-60 cells, CCK-8 method
Protocol: (§1) After the cell culture flasks gently shaking, culture fluid was discarded in clean bench. […] Cells were collected and transferred to centrifuge tube. For the non-adherent cells HL-60, CCRF-CEM and MOLT-4, cell flasks were picked up from incubator and then transferred to the centrifuge tubes directly. After cells were collected using centrifuge at 1000 rpm/min for 5 min, the fluid was discarded. Then cells were washed for one time by PBS, discard fluid. Then add some medium, count cells under inverted microscope using blood cell counting plate, according the counting number to making the density of adherent cell was 1×10^5 cells/mL, the non-adherent cell was 2×10^5 cells/mL (the volumes of HL-60, CCRF-CEM, MOLT-4 are smaller than non-adherent cells, these cells added to each well was much more higher). Add 50 μL aliquots to each well of 96-well plates (the density of adherent cells was 5000 cells/well, non-adherent cells was 10000 cells/well). Blank control, Negative control, blank control with compounds and positive control wells were grouped, and three replicate wells were used for each data point in the experiments. Then the cells were cultured in 5% incubator for overnight at 37° C., Then the different concentration compounds were added to each well. After incubation for 48 h, according to the manufacturer's instructions, CCK-8 reagent (10 μl) was added and incubation was continued for a further 2-4 h. The absorbance (A) of each well was read at 450 nm using a plate reader.

[1] = tested on: non-small cell lung cancer A549 cells; assay: In vitro cell inhibition assay, CCK-8 method, A549; assay type: cell-based, human; settings: 48 h incubation
Protocol: as §1

| SMILES | Proliferation inhibitory effect of the compounds on HL-60 cells (% of Control) (leukemia HL-60 cells; concentration 0.01 μM) | Proliferation inhibitory effect of the compounds on HL-60 cells (% of Control) (leukemia HL-60 cells; concentration 0.1 μM) | Proliferation inhibitory effect of the compounds on HL-60 cells (% of Control) (leukemia HL-60 cells; concentration 1 μM) | Proliferation inhibitory effect of the compounds on HL-60 cells (% of Control) (leukemia HL-60 cells; concentration 10 μM) | Proliferation inhibitory effect of the compounds on HL-60 cells (% of Control) (leukemia HL-60 cells; concentration 100 μM) | Proliferation inhibitory effect of the compounds on A549 cells (% of Control) ([1]; CCK-8, 0.01 μM) | Proliferation inhibitory effect of the compounds on A549 cells (% of Control) ([1]; CCK-8, 0.1 μM) | Proliferation inhibitory effect of the compounds on A549 cells (% of Control) ([1]; CCK-8, 1 μM) | Proliferation inhibitory effect of the compounds on A549 cells (% of Control) ([1]; CCK-8, 10 μM) | Proliferation inhibitory effect of the compounds on A549 cells (% of Control) ([1]; CCK-8, 100 μM) | inhibition at 0.01 µM (leukemia HL-60 cells; Homo sapiens, concentration 0.01 μM, read-out: Proliferation inhibitory effect of the compounds on HL-60 cells (% of Control)) [%] | inhibition at 0.1 µM (leukemia HL-60 cells; Homo sapiens, concentration 0.1 μM, read-out: Proliferation inhibitory effect of the compounds on HL-60 cells (% of Control)) [%] | inhibition at 1 µM (leukemia HL-60 cells; Homo sapiens, concentration 1 μM, read-out: Proliferation inhibitory effect of the compounds on HL-60 cells (% of Control)) [%] | inhibition at 10 µM (leukemia HL-60 cells; Homo sapiens, concentration 10 μM, read-out: Proliferation inhibitory effect of the compounds on HL-60 cells (% of Control)) [%] | inhibition at 100 µM (leukemia HL-60 cells; Homo sapiens, concentration 100 μM, read-out: Proliferation inhibitory effect of the compounds on HL-60 cells (% of Control)) [%] | inhibition at 0.01 µM ([1]; Homo sapiens, A549, CCK-8, 0.01 μM, read-out: Proliferation inhibitory effect of the compounds on A549 cells (% of Control)) [%] | inhibition at 0.1 µM ([1]; Homo sapiens, A549, CCK-8, 0.1 μM, read-out: Proliferation inhibitory effect of the compounds on A549 cells (% of Control)) [%] | inhibition at 1 µM ([1]; Homo sapiens, A549, CCK-8, 1 μM, read-out: Proliferation inhibitory effect of the compounds on A549 cells (% of Control)) [%] | inhibition at 10 µM ([1]; Homo sapiens, A549, CCK-8, 10 μM, read-out: Proliferation inhibitory effect of the compounds on A549 cells (% of Control)) [%] | inhibition at 100 µM ([1]; Homo sapiens, A549, CCK-8, 100 μM, read-out: Proliferation inhibitory effect of the compounds on A549 cells (% of Control)) [%] |
| --- | --- | --- | --- | --- | --- | --- | --- | --- | --- | --- | --- | --- | --- | --- | --- | --- | --- | --- | --- | --- |
| N#Cc1c(Cl)c(Cl)c(Nc2c(Cl)cc(Br)cc2Cl)c(C#N)c1Cl [Compound 6-201] | 40.59 % of Control | 48.61 % of Control | 75.70 % of Control | 86.76 % of Control | 98.14 % of Control | 14.31 % of Control | 19.63 % of Control | 26.90 % of Control | 60.23 % of Control | 83.86 % of Control |  |  |  |  |  |  |  |  |  |  |
| N#Cc1c(Cl)c(Cl)c(Nc2c(Cl)cc(C(F)(F)F)cc2Cl)c(C#N)c1Cl [Compound 6-95] | 0.00 % of Control | 43.28 % of Control | 94.76 % of Control | 94.99 % of Control | 96.40 % of Control | 39.65 % of Control | 56.27 % of Control | 78.63 % of Control | 97.88 % of Control | 98.69 % of Control |  |  |  |  |  |  |  |  |  |  |
| N#Cc1c(Cl)c(Cl)c(Nc2c(Br)cc(Br)cc2Br)c(C#N)c1Cl [Compound 6-112] |  |  |  |  |  |  |  |  |  |  | 48.3 | 59.5 | 91.5 | 97.6 | 96.5 | 46.5 | 47.2 | 76.9 | 89.3 | 99.3 |
| N#Cc1c(Cl)c(Cl)c(Nc2c(Br)cc(OC(F)(F)F)cc2Br)c(C#N)c1Cl [Compound 6-111] | 13.70 % of Control | 41.52 % of Control | 79.31 % of Control | 95.16 % of Control | 99.28 % of Control | 23.15 % of Control | 29.42 % of Control | 53.14 % of Control | 80.03 % of Control | 99.83 % of Control |  |  |  |  |  |  |  |  |  |  |
| N#Cc1c(Cl)c(Cl)c(Nc2ccc(Br)cc2Cl)c(C#N)c1Cl [Compound 6-45] | 0.00 % of Control | 27.78 % of Control | 39.89 % of Control | 52.09 % of Control | 80.30 % of Control |  |  |  |  |  |  |  |  |  |  |  |  |  |  |  |
